# Tests used:
# U87 = experiment: MTT cell viability assay, U87 cells; format: cell-based; settings: 48 h, n = 3
# Protocol: (§1) MGC-803, SGC-7901, U87 and SMMC-7721 cell lines were cultured in DMEM supplemented with 10% foetal bovine serum, 100 IU/mL penicillin/streptomycin. The cells were incubated in an atmosphere containing 5% CO2 at 37 °C.
# (§2) MGC-803, SGC-7901, U87 and SMMC-7721 cells were plated in 96-well plate at 7000 per well. Cells were incubated with the different concentrations of the compounds for 48 h. Subsequently, MTT (0.5 mg/mL) were used to test the cell viability, then 150 μL DMSO was added to each well after cells were incubated for 4 h and the absorbance was measured at 492 nm.
# SMMC-7721 = experiment: MTT cell viability assay, SMMC-7721 cells; format: cell-based; settings: Homo sapiens, 48 h, n = 3
# Protocol: as §1, §2
# SGC-7901 = experiment: MTT cell viability assay, SGC-7901 cells; format: cell-based, human; settings: n = 3
# Protocol: as §1, §2
# MGC-803 = experiment: MTT cell viability assay, MGC-803 cells; format: cell-based; settings: n = 3
# Protocol: as §1, §2
# L02 = experiment: MTT cell viability assay, L02 cells; format: cell-based; settings: Homo sapiens, n = 3
# [1] = system: SGC-7901, MGC-803, SMMC-7721, U-87 cell lines; experiment: MTT anticancer activity, summary in words over the cell line panel; format: cell-based; settings: MTT assay
# Protocol: as §2
# Compounds 1–24 were detected for anticancer activities against SGC-7901, MGC-803, SMMC-7721, U-87 cell lines in vitro by the MTT assay, and ADM was used as the positive control. From Table 1, when the phenolic hydroxyls of naphthoquinone moiety were converted to ether, the activity was missing. […] So colony formation assay of this compound (Figure 4) was used to investigate the effect of it on cell proliferation in SGC-7901 cells. The experiment examined the ability for producing colonies after the cells were treated with the cell death agents[35]^,[36].
# [2] = Metabolic stability assay in human liver microsomes; format: in vitro ADME
# Protocol: To initially evaluate the stability of compound 12, we then tested the liver microsome stability of this compound. The Mean % Parent Remaining of compound 12 in metabolic stability test were 100, 95, 85, 80, and 70 at 0, 15, 30, 45, and 60 min, respectively.
# SGC-7901 cells [3] = experiment: Annexin V-FITC/PI apoptosis assay (flow cytometry); format: cell-based, human; settings: 48 h; for total apoptosis: control 4.34%
# Protocol: After the indicated treatments for 48 h, cells were collected, washed three times with cold PBS, centrifuged and resuspended with 400 μL AnnexinV binding buffer per tube. Then the cells were stained with 5μLAnnexinV-FITC and incubated in the dark for 10 min on ice. Finally, 10 μL PI staining solution was added, and cells were detected by the flow cytometry after incubated in the dark for 5 min. Flowjo 7.6.1 software was used to analyse the cell apoptosis.
# Apoptosis is one of the main methods that result in cell death. In this study, Annexin V-FITC/PI kit was used to evaluate the cell apoptosis. […] To further, investigate whether the cell apoptosis induced by title compound, Western blot analysis was used to measure the effect of the compound on apoptosis of SGC-7901 cell. As reported that apoptosis pathway could be regulated by the activation of PARP and Bcl2 family proteins[40]^,[41].
# SGC-7901 cells [4] = experiment: Colony formation assay; format: cell-based, human; settings: SGC-7901, 2, 4, 8 μM, 12 d
# Protocol: SGC-7901 cells (8000/well) were seeded in 6-well plate, and treated with indicated concentrations of compound 12 (2 μM, 4 μM, 8 μM) for 12 d. The medium was removed and methanol (500 μL/well) was added to fix at the cells for 3 min. Then cells were stained with giemsa working fluid for 15 min and washed with PBS. The number of colonies was counted.
# SGC-7901 cells [5] = experiment: Acridine orange (AO) staining of acidic vesicles; format: cell-based, human; settings: SGC-7901, 1, 2, and 4 μM, 48 h
# Protocol: PH-sensitive Acridine orange (AO) was used to label acidic vesicles. Human gastric cancer cells were seeded in laser confocal dishes at 10,000/ml. After indicated treatment of compound 12 (1 μM, 2 μM, 4 μM) for 48 h, cells were stained with AO (1 μg/ml) for 15 min at the cell culture incubator. After the cells were washed by PBS, pictures were acquired under laser confocal microscope.
# Another typical feature of autophagy is the accumulation of the acidic autophagic vacuoles (AVOs)[45]^,[46]. To verify the development of AVOs, Acridine Orange (AO) staining was used to examine whether the acidic vesicular organelles in SGC-7901 cells were increased. AO produces red fluorescence when it accumulates in acidic regions such as autophagy lysosomes and lysosomes and produces bright green fluorescence in the cytoplasm and the nucleus. […] GFP-LC3 indicating technique was also used to detect the autophagy at the same time. When autophagy is formed, multiple bright green fluorescent spots will form as the GFP-LC3 fusion protein can translate to autophagosome membrane. From Figure 6(C), compared to the blank control group, GFP-LC3 puncta were increased after cells treated with compound 12 (4 μM) meanwhile decreased after treated with compound 12 (4 μM) and 3-MA (500 μM).
# [6] = system: PI3K/AKT/MTOR signalling pathway; experiment: Western blot of PI3K/AKT/MTOR pathway; format: cell-based, human
# Protocol: RIPA lysis buffer was used to dissociate the treated cells. Cells were lysed and the supernatant was harvested after centrifuged for 30 min. The cell proteins were separated using Sodium dodecyl sulphate-polyacrylamide gel electrophoresis, and then they were transferred to the PVDF membranes. The membranes were blocked with skimmed milk solution (5%) for 2 h, then incubated with primary antibodies (1:1000, cst) for 20 h at 4 °C. The membranes were detected by chemiluminescence reagent after probed with the secondary antibody for 1 h.
# As a therapeutic target for cancer, the PI3K/AKT/MTOR signalling pathway participates in regulating autophagy. Consequently, Western blot experiment was used to explore the impact of compound 12 on the level of phospho-PI3K, phospho-AKT and phospho-mTOR. […] 3-MA (3-methyladenine) is also a PI3K inhibitor[57], so compound 12 (4 μM) with 3-MA (500 μM) were used to treated the cells.
# [7] = compound 12 4 μM with 3-MA 500 μM
compound,measurement,setting,value
"CC(C)=CCC(OC(=O)CCC(=O)Nc1ccc(Oc2ccccc2)cc1)C1=CC(=O)c2c(O)ccc(O)c2C1=O (stereo not shown) [Compound 12, 1-(5,8-dihydroxy-1,4-dioxo-1,4-dihydronaphthalen-2-yl)-4-methylpent-3-en-1-yl-4-oxo-4-((4-phenoxyphenyl)amino)butanoate]",IC50,U87,3.8 ± 0.2 µM
same,IC50,"U87; Homo sapiens, U-87 MG",3.85 µM
same,IC50,SMMC-7721,20.6 ± 0.4 µM
same,IC50,SGC-7901; 48 h,4.1 ± 2.6 µM
same,IC50,"SGC-7901; Homo sapiens, SGC-7901, 48 h",4.09 µM
same,IC50,MGC-803; 48 h,4.1 ± 0.6 µM
same,IC50,"MGC-803; Homo sapiens, MGC-803, 48 h",4.07 µM
same,IC50,L02,> 50 µM
same,anticancer activity (in words),[1],good activity
same,Mean % Parent Remaining,[2]; 0 min,100%
same,Mean % Parent Remaining,[2]; 15 min,95%
same,Mean % Parent Remaining,[2]; 30 min,85%
same,Mean % Parent Remaining,[2]; 45 min,80%
same,Mean % Parent Remaining,[2]; 60 min,70%
same,microsomal CLint,"[2]; human, read-out: calculated clearance rate",> 110 µL/min/mg
same,half-life,"[2]; human, read-out: half-life (t1/2)",> 1 h
same,total apoptosis,"SGC-7901 cells [3]; SGC-7901, 1 μM",6.45%
same,total apoptosis,"SGC-7901 cells [3]; SGC-7901, 2 μM",9.72%
same,total apoptosis,"SGC-7901 cells [3]; SGC-7901, 4 μM",19.9%
same,apoptosis rate in the presence of 3-MA compared with compound 12 alone,"SGC-7901 cells [3]; compound 12 4 μM, 3-MA 500 μM",decreased
same,number of colonies vs control,SGC-7901 cells [4],decreased
same,red fluorescently labelled acidic vesicles (AO staining),SGC-7901 cells [5],accumulated obviously
same,expression of p-AKT,"[6]; 1, 2, 4 μM, 48 h",decreased in a dose-dependent manner
same,expression of p-MTOR,"[6]; 1, 2, 4 μM, 48 h",decreased in a dose-dependent manner
same,expression of p-PI3K,"[6]; 1, 2, 4 μM, 48 h",decreased in a dose-dependent manner
same,ratio of p-AKT/AKT compared with compound 12 alone,[6]; [7],increased
same,ratio of p-MTOR/MTOR compared with compound 12 alone,[6]; [7],increased
same,ratio of p-PI3K/PI3K compared with compound 12 alone,[6]; [7],increased
